The source of these data is US20110098323A1, “INHIBITORS OF BACTERIAL BIOFILM FORMATION” (MICROBIOTIX, INC., priority 2009, published 2011).

Like-named read-outs stand apart in the source and are kept apart here.

Holding throughout (assay): MBIC/MIC secondary assay
Holding throughout (format): cell-based, Staphylococcus aureus

One test has as its system S. aureus ATCC 35556. The note with it: for MIC: Staphylococcus aureus, ATCC35556.
Another test has as its system S. aureus strain NRS-123. The note with it: for MIC: Staphylococcus aureus, NRS123. As to the method:
(§1) Assays for detecting and measuring bacterial biofilm formation are known in the art. An example of a biofilm formation assay useful in detecting and characterizing biofilm inhibitor compounds is described in Example 1, infra. Briefly, bacterial cells are inoculated into growth medium in individual wells of a 96-well assay plate in the presence or absence of a compound (known biofilm inhibitor or test compound). After incubation for a specified time, growth medium and non-biofilm bacterial cells are removed from each of the wells. The bacterial cells in any biofilms that are adhered to the surface of a well are fixed by addition of ethanol. The ethanol is removed, and the fixed biofilm bacteria cells are stained with crystal violet (CV). The intensity of CV staining is directly correlated with bacterial biofilm formation and is measured in the wells by reading the optical density at 600 nm (OD600). The difference in biofilm formation between untreated control and treated cultures provides an indication of relative biofilm inhibition activity (anti-biofilm activity). Use of different concentrations of an inhibitor in multiple and otherwise duplicate cultures permits determination of a compound's Minimal Biofilm Inhibitory Concentration (MBIC), which is defined herein as the lowest concentration of a compound that inhibits biofilm formation by at least 80% (i.e., ≧80%) compared to untreated control cultures.
(§2) A higher throughput was achieved by formatting the assay for use in flat-bottomed 96-well assay plates (Costar 3590 assay plates, Corning Life Sciences, Lowell, Mass.). The biofilm cultures grew on the bottoms of each well in a surface attached mode. In each assay plate, columns 1 and 12 contained untreated cultures, which served as negative controls (0% biofilm inhibition). Each of the assay wells in columns 2-11 contained a unique small molecule from the Microbiotix Screening Library (MSL) at a final concentration of 100 μM. Assay plates were inoculated with 200 μl/well of a culture of Staphylococcus pidermidis 18972 in 0.5×Tryptic Soy Broth (TSB; Becton Dickinson, Franklin Lakes, N.J.) in which the concentration of glucose was adjusted to 0.25% (w/v). The bacterial inocula were prepared by making a 1:100 dilution of an overnight culture grown in TSB in the media used for the screen. After inoculation, assay plates were sealed with foil tape and incubated at 37° C. for 18-20 hours (h). The optical density at 600 nm (OD600) was measured for each well using a VICTOR2V™ multiplate reader (Perkin Elmer, Waltham, Mass.) in order to quantify overall bacterial growth. The assay plates were processed to remove bacterial growth media and non-biofilm cells from the bottom of each assay well. This was accomplished by using a BioTek ELx405™ plate washer (BioTek Instruments, Inc., Winooski, Vt.). Biofilm bacteria were fixed by addition of 50 μl of 95% ethanol for 30 minutes (min). The ethanol was removed, and the fixed biofilm cultures were stained with 50 μl of 0.06% crystal violet (CV) for 60 min. Excess CV was removed by repeated washes using the BioTek ELx405™ plate washer. The amount of CV bound to each assay well was quantified by measuring OD600 using a VICTOR2V™ plate reader (Perkin Elmer).
(§3) A secondary assay provided a quantitative measure of both anti-biofilm activity and antibacterial activity in terms of the Minimal Biofilm Inhibitory Concentration (MBIC) and the Minimal Inhibitory Concentration (MIC), respectively. The MBIC and MIC are defined as the lowest compound concentrations that inhibit biofilm formation and bacterial growth, respectively, by at least 80% (i.e., ≧80%). The MBIC/MIC assay is formatted in a manner that is similar to the Microbroth dilution assays described by the Clinical and Laboratory Standards Institute (CLSI; formerly NCCLS) in protocol M7-A7. The growth conditions were optimized for biofilm growth in 96-well assay plates such that the resulting CV staining was within the linear range of detection. […]

In test [1] the test system is methicillin-susceptible S. aureus (MSSA). As to conditions: for MIC: Staphylococcus aureus. As to the method:
as §1, §2, §3

[2] abbreviates: S. aureus strain 35556, Table 5.

Usually MIC stands for the smallest concentration in the dilution series that meets the test's criterion for growth inhibition. Turning to `CCOc1cc(/C=C2\SC(=S)N(c3ccc(F)cc3)C2=O)ccc1O` [Compound 4, 3-(4-fluorophenyl)-5-(3-ethoxy-4-hydroxybenzylidene)-2-thioxothiazolidin-4-one], the MBIC in the test with S. aureus ATCC 35556 (S. aureus ATCC 35556, stated in text of Examples 5 and 6) was 3.125 µM; in the test with S. aureus ATCC 35556 (setting [2]), 3.1 µM; in the test with S. aureus strain NRS-123 (S. aureus strain NRS-123), 25 µM; in test [1] (S. aureus strain MSSA), 12.5 µM. The MIC (against S. aureus ATCC 35556; in the test on S. aureus strain NRS-123; in test [1] (MSSA)) was not below 100 µM each time.

As for `CCOc1cc(/C=C2\SC(=S)N(c3cccc(F)c3)C2=O)ccc1O` [Compound 8, 3-(3-fluorophenyl)-5-(3-ethoxy-4-hydroxybenzylidene)-2-thioxothiazolidin-4-one], the MBIC was determined as 6.3 µM with S. aureus ATCC 35556 (setting [2]), 25 µM in the test on S. aureus strain NRS-123 (S. aureus strain NRS-123) and 25 µM in test [1] (S. aureus strain MSSA). The MIC (against S. aureus ATCC 35556; in the test on S. aureus strain NRS-123; in test [1] (MSSA)) was not below 100 µM each time.

For `C=CCOc1cc(/C=C2\SC(=S)N(c3ccc(F)cc3)C2=O)ccc1O` [Compound 29, 3-(4-fluorophenyl)-5-(3-allyloxy-4-hydroxybenzylidene)-2-thioxothiazolidin-4-one], the MBIC in the test on S. aureus ATCC 35556 (setting [2]) worked out at 3.1 µM; in the test on S. aureus strain NRS-123 (S. aureus strain NRS-123), 25 µM; in test [1] (S. aureus strain MSSA), 12.5 µM. Also, the MIC with S. aureus ATCC 35556 (S. aureus strain 35556, Table 5, read-out: MIC) is not below 100 µM; in the test on S. aureus strain NRS-123 (S. aureus strain NRS-123, read-out: MIC) it was not below 100 µM; in test [1] (S. aureus strain MSSA, read-out: MIC) it was not below 100 µM.

For the molecule `CCOc1cc(/C=C2\SC(=S)N(c3cccc(C#N)c3)C2=O)ccc1O` [Compound 34, 3-(3-cyanophenyl)-5-(3-ethoxy-4-hydroxybenzylidene)-2-thioxothiazolidin-4-one], the results for the MBIC (in the test on S. aureus ATCC 35556 (setting [2]); in the test on S. aureus strain NRS-123 (S. aureus strain NRS-123); in test [1] (S. aureus strain MSSA)) were 1.6 µM, 25 µM and 12.5 µM, respectively. The MIC (against S. aureus ATCC 35556; with S. aureus strain NRS-123; in test [1] (MSSA)) was not below 100 µM in each case.

Turning to `CCOc1cc(/C=C2\SC(=S)N(c3cccnc3)C2=O)ccc1O` [Compound 36, 3-(pyridin-3-yl)-5-(3-ethoxy-4-hydroxybenzylidene)-2-thioxothiazolidin-4-one], the MBIC (in the test with S. aureus ATCC 35556 (setting [2]); in the test with S. aureus strain NRS-123 (S. aureus strain NRS-123); in test [1] (S. aureus strain MSSA)) was 12.5 µM throughout. For the same molecule, the minimum inhibitory concentration (MIC) (in the test on S. aureus ATCC 35556; with S. aureus strain NRS-123; in test [1] (MSSA)) was not below 100 µM each time.

`CCOc1cc(/C=C2\SC(=S)N(c3ccc(F)nc3)C2=O)ccc1O` [Compound 40, 3-(6-fluoropyridin-3-yl)-5-(3-ethoxy-4-hydroxybenzylidene)-2-thioxothiazolidin-4-one]: the values for the MBIC (with S. aureus ATCC 35556 (setting [2]); in the test with S. aureus strain NRS-123 (S. aureus strain NRS-123); in test [1] (S. aureus strain MSSA)) were 6.3 µM, 50 µM and 6.3 µM, respectively. In addition, the minimal inhibitory concentration (MIC) (in the test with S. aureus ATCC 35556; against S. aureus strain NRS-123; in test [1] (MSSA)) was not below 100 µM each time.
